According to PubChem BioAssay AID1259408 (Genetic Toxicology Data Bank (GENE-TOX), 2018):
Activity calls are given as the source filed them. No rule for the calls is given here.

Tested on: GENE-TOX genotoxicity assays, various organisms and cells
Assay: GENE-TOX mutagenicity studies
Conditions: for call: Assay Type: In vivo carcinogenicity studies
[1] = Species/Cell Type: Saccharomyces cerevisiae, Assay Type: Reverse gene mutation, Assay Code: YERT, Evaluation Type: Evaluation A (Pre-1980)
[2] = Species/Cell Type: Drosophila melanogaster, Assay Type: Sex-linked recessive lethal gene mutation, Assay Code: SRL+, Evaluation Type: Evaluation A (Pre-1980)
[3] = Species/Cell Type: Drosophila melanogaster, Sex: Male, Assay Type: Heritable translocation test, chromosome aberrations, Assay Code: DHTT, Evaluation Type: Evaluation A (Pre-1980)
[4] = Species/Cell Type: Nonhuman, Assay Code: CCG+, Evaluation Type: Evaluation A (Pre-1980)
[5] = Species/Cell Type: Salmonella typhimurium (one or more of the five standard strains: TA98, TA100, TA1535, TA1537, and TA1538), Assay Type: Histidine reverse gene mutation, Ames assay, Assay Code: SAL+*, Activation: With metabolic activation, Evaluation Type: Evaluation A (Pre-1980)
[6] = Species/Cell Type: Mammalian oocytes or early embryo, Assay Type: Chromosome aberrations in vivo, Assay Code: CYO-, Evaluation Type: Evaluation A (Pre-1980)
[7] = Species/Cell Type: Saccharomyces cerevisiae, Assay Type: Mitotic recombination or gene conversion, Assay Code: YEH-, Evaluation Type: Evaluation A (Pre-1980)
[8] = Species/Cell Type: Saccharomyces cerevisiae, Assay Type: Mitotic recombination or gene conversion, Assay Code: YEC+, Evaluation Type: Evaluation A (Pre-1980)
[9] = Species/Cell Type: Saccharomyces cerevisiae, Assay Type: Mitotic recombination or gene conversion, Assay Code: YEH+, Evaluation Type: Evaluation A (Pre-1980)
[10] = Species/Cell Type: Chinese hamster lung (V79) cells, Assay Type: Forward gene mutation at the HPRT or ouabain locus, Assay Code: V79+, Evaluation Type: Evaluation A (Pre-1980)
[11] = Species/Cell Type: Nonhuman, Assay Code: CCG+L, Evaluation Type: Evaluation A (Pre-1980)

## O=c1ccc2cc3ccoc3cc2o1
Species/Cell Type: Mammalian cell culture, nonhuman, Assay Type: Micronucleus test in vitro, chromosome aberrations, Assay Code: MN&+, Evaluation Type: Evaluation A (Pre-1980)
  mutagenic call: active; positive
[1]
  mutagenic call: no conclusion

## C=C/C=C/C=C/C#CC#C/C=C/C
Species/Cell Type: Nonhuman, Assay Type: Sister-chromatid exchange (SCE) in vitro, Assay Code: SC2T, Evaluation Type: Evaluation B (Post-1980)
  mutagenic call: no conclusion

## CS(=O)(=O)OC[C@H](O)[C@@H]1CO1
Species/Cell Type: Allium cepa, Assay Type: Chromosome aberrations, Assay Code: ALC+D, Dose Response: With dose response, Evaluation Type: Evaluation A (Pre-1980)
  mutagenic call: active; positive

## OCC1=C[C@H](N[C@H]2C[C@H](CO)[C@@H](O[C@@H]3O[C@H](CO)[C@@H](O)[C@H](O)[C@H]3O)[C@H](O)[C@H]2O)[C@H](O)[C@@H](O)[C@@H]1O
Species/Cell Type: Bacillus subtilis (H17 vs M45), Assay Type: Rec-assay, spot test, DNA effects (bacterial DNA repair), Assay Code: REW-, Evaluation Type: Evaluation A (Pre-1980)
  mutagenic call: inactive; negative

## O=NN1CCN(N=O)CC1
[2]
  mutagenic call: active; positive
[3]
  mutagenic call: no conclusion
Species/Cell Type: Glycine max (soybean), Assay Type: Gene mutation, Assay Code: GLM-, Evaluation Type: Evaluation A (Pre-1980)
  mutagenic call: inactive; negative
Species/Cell Type: Mouse embryo (AKR/ME) cells, Assay Type: Cell transformation, Assay Code: CTK+, Evaluation Type: Evaluation A (Pre-1980)
  mutagenic call: active; positive
[4]
  call: active; positive
[5]
  mutagenic call: active; positive
Species/Cell Type: Salmonella typhimurium, Assay Type: Forward and reverse gene mutation, host-mediated assay, Assay Code: HMA+, Evaluation Type: Evaluation A (Pre-1980)
  mutagenic call: active; positive

## Cc1cc2c(c3ccc4ccccc4c13)CC(O)C2=O (stereo not drawn)
[5]
  mutagenic call: active; positive

## CC(=O)[O-].CC(=O)[O-].[Hg+2]
[6]
  mutagenic call: inactive; negative
Species/Cell Type: Nonhuman, Assay Type: Sister-chromatid exchange (SCE) in vitro, Assay Code: SC2-, Evaluation Type: Evaluation B (Post-1980)
  mutagenic call: inactive; negative

## O=[N+]([O-])c1c2ccccc2c2ccc3cccc4ccc1c2c43
Species/Cell Type: Chinese hamster ovary (CHO) cells, Assay Type: Forward gene mutation at the HPRT locus, Assay Code: CHOT, Evaluation Type: Evaluation B (Post-1980)
  mutagenic call: no conclusion
[5]
  mutagenic call: active; positive

## Cc1ccc(N)cc1
Species/Cell Type: Escherichia coli polA (W3110 vs P3478), Assay Type: Rec-assay, DNA effects (bacterial DNA repair), Assay Code: RE2-, Evaluation Type: Evaluation A (Pre-1980)
  mutagenic call: inactive; negative
Species/Cell Type: Escherichia coli polA (W3119 vs P3478), Assay Type: Rec-assay, DNA effects (bacterial DNA repair), Assay Code: RE1-, Evaluation Type: Evaluation A (Pre-1980)
  mutagenic call: inactive; negative
Species/Cell Type: Saccharomyces cerevisiae, Assay Type: Mitotic recombination or gene conversion, Assay Code: YEH+*, Activation: With metabolic activation, Evaluation Type: Evaluation A (Pre-1980)
  mutagenic call: active; positive
[7]
  mutagenic call: inactive; negative

## CC(C)NNC(=O)c1ccncc1
Species/Cell Type: Nonhuman, Assay Type: Sister-chromatid exchange (SCE) in vivo, Assay Code: SC3+, Evaluation Type: Evaluation B (Post-1980)
  mutagenic call: active; positive

## ClC(Cl)(Cl)Cl
Species/Cell Type: Mouse, Sex: Male, Assay Type: Sperm morphology, Assay Code: SPI-, Evaluation Type: Evaluation A (Pre-1980)
  mutagenic call: inactive; negative
[4]
  call: active; positive
[8]
  mutagenic call: active; positive
[9]
  mutagenic call: active; positive
Species/Cell Type: Saccharomyces cerevisiae, Assay Type: Reverse gene mutation, Assay Code: YER+, Evaluation Type: Evaluation A (Pre-1980)
  mutagenic call: active; positive
Species/Cell Type: Salmonella typhimurium (one or more of the five standard strains: TA98, TA100, TA1535, TA1537, and TA1538), Assay Type: Histidine reverse gene mutation, Ames assay, Assay Code: SAL-, Evaluation Type: Evaluation A (Pre-1980)
  mutagenic call: inactive; negative

## COC(=O)Cc1ccc(OC)c(CSC(=N)N)c1
[1]
  mutagenic call: no conclusion

## C[n+]1c2cc(N)ccc2cc2ccc(N)cc21 (tested in a mixture with another compound)
Species/Cell Type: Aspergillus nidulans, Assay Type: Forward gene mutation, Assay Code: ASF+, Evaluation Type: Evaluation A (Pre-1980)
  mutagenic call: active; positive
Species/Cell Type: Mammalian cell culture, nonhuman, Assay Type: Micronucleus test in vitro, chromosome aberrations, Assay Code: MN&+U, Dose Response: Unconfirmed positive response, Evaluation Type: Evaluation A (Pre-1980)
  mutagenic call: active; positive
[6]
  mutagenic call: inactive; negative
Species/Cell Type: Mammalian polychromatic erythrocytes, Assay Type: Micronucleus test, chromosome aberrations, Assay Code: MNT+U, Dose Response: Unconfirmed positive response, Evaluation Type: Evaluation A (Pre-1980)
  mutagenic call: active; positive
Species/Cell Type: Mouse, Sex: Male, Assay Type: Sperm morphology, Assay Code: SPI+, Evaluation Type: Evaluation A (Pre-1980)
  mutagenic call: active; positive
Species/Cell Type: Saccharomyces cerevisiae, Assay Type: Mitotic recombination or gene conversion, Assay Code: YECT, Evaluation Type: Evaluation A (Pre-1980)
  mutagenic call: no conclusion
[9]
  mutagenic call: active; positive
Species/Cell Type: Salmonella typhimurium, Escherichia coli, Serratia marcesens, Assay Type: Forward and reverse gene mutation, host-mediated assay, Assay Code: HMN-, Evaluation Type: Evaluation A (Pre-1980)
  mutagenic call: inactive; negative

## Cc1ccc2cc3c4c(ccc3c3c2c1CC3)C(O)C(O)C=C4 (stereo not drawn)
[10]
  mutagenic call: active; positive
[11]
  call: active; positive
[5]
  mutagenic call: active; positive

## Clc1ccc(C(c2ccccc2Cl)C(Cl)(Cl)Cl)cc1 (stereo not drawn)
Species/Cell Type: Nonhuman, Assay Type: Chromosome aberrations in vitro, Assay Code: CY&+, Evaluation Type: Evaluation A (Pre-1980)
  mutagenic call: active; positive

## O=c1cc(CO)occ1O
[5]
  mutagenic call: active; positive

## c1ccc(NNc2ccccc2)cc1
[4]
  call: active; positive

## Cc1c2ccccc2c(CO)c2c1ccc1ccccc12
[10]
  mutagenic call: active; positive
[11]
  call: active; positive

## c1cc2c3c(c1)cc1ccc4cccc5cc(c3c1c45)CC2
[5]
  mutagenic call: active; positive

## COc1cc(/C=N/NC(=O)COc2ccc(Br)cc2CN2CCCCC2)ccc1O
[1]
  mutagenic call: no conclusion

## Nc1nncs1
Species/Cell Type: Drosophila melanogaster, Assay Type: Aneuploidy, sex chromosome gain, chromosome aberrations, Assay Code: DAG+M, Evaluation Type: Evaluation A (Pre-1980)
  mutagenic call: active; positive
Species/Cell Type: Drosophila melanogaster, Assay Type: Aneuploidy, whole sex chromosome loss, chromosome aberrations, Assay Code: DAC+M, Evaluation Type: Evaluation A (Pre-1980)
  mutagenic call: active; positive
[3]
  mutagenic call: no conclusion

## CN(CCC(=O)OC[C@H](N)C(=O)O)N=O
Species/Cell Type: Escherichia coli polA (W3110 vs P3478), Assay Type: Rec-assay, DNA effects (bacterial DNA repair), Assay Code: RE2+, Evaluation Type: Evaluation A (Pre-1980)
  mutagenic call: active; positive
Species/Cell Type: Escherichia coli polA (W3119 vs P3478), Assay Type: Rec-assay, DNA effects (bacterial DNA repair), Assay Code: RE1T, Evaluation Type: Evaluation A (Pre-1980)
  mutagenic call: no conclusion

## Cc1c2c(c(CO)c3ccc4ccccc4c13)C=C[C@H](O)[C@H]2O
Species/Cell Type: Nonhuman, Assay Code: CCGT, Evaluation Type: Evaluation A (Pre-1980)
  call: no conclusion

## C=C/C=C/Cl
[2]
  mutagenic call: active; positive

## O=C1N(CCO)CCN1/N=C/c1ccc([N+](=O)[O-])o1
Species/Cell Type: Salmonella typhimurium (one or more of the five standard strains: TA98, TA100, TA1535, TA1537, and TA1538), Assay Type: Histidine reverse gene mutation, Ames assay, Assay Code: SAL+, Evaluation Type: Evaluation A (Pre-1980)
  mutagenic call: active; positive

## COc1cc2c(c3oc(=O)c4c(c13)[C@@H](O)CC4=O)[C@@H]1C=CO[C@@H]1O2
[5]
  mutagenic call: active; positive

## Clc1cc2oc3cc(Cl)c(Cl)cc3c2cc1Cl
Species/Cell Type: Saccharomyces cerevisiae, Assay Type: Forward gene mutation, Assay Code: YEF-, Evaluation Type: Evaluation A (Pre-1980)
  mutagenic call: inactive; negative
Species/Cell Type: Saccharomyces cerevisiae, Assay Type: Mitotic recombination or gene conversion, Assay Code: YEC-, Evaluation Type: Evaluation A (Pre-1980)
  mutagenic call: inactive; negative
[7]
  mutagenic call: inactive; negative

## O[C@@H]1[C@@H](O)[C@@H](O)c2c(cc3ccc4cccc5ccc2c3c45)[C@H]1O
Species/Cell Type: Chinese hamster lung (V79) cells, Assay Type: Forward gene mutation at the HPRT or ouabain locus, Assay Code: V79-*, Activation: With metabolic activation, Evaluation Type: Evaluation A (Pre-1980)
  mutagenic call: inactive; negative

## O=NN(CCCl)C(=O)NCCO
[2]
  mutagenic call: active; positive
[8]
  mutagenic call: active; positive

## CCN(Cc1ccccc1)c1ccc(C(=C2C=CC(=[N+](CC)Cc3ccccc3)C=C2)c2ccc(S(=O)(=O)O)cc2S(=O)(=O)[O-])cc1
Species/Cell Type: Bacillus subtilis (H17 vs M45), Assay Type: Rec-assay, spot test, DNA effects (bacterial DNA repair), Assay Code: REWT, Evaluation Type: Evaluation A (Pre-1980)
  mutagenic call: no conclusion
